In paper PMC6155273, “Antiprotozoal Activity of Triazole Derivatives of Dehydroabietic Acid and Oleanolic Acid” (Molecules : A Journal of Synthetic Chemistry and Natural …, 2017):
Values after ≈ are worked out from the molar mass of the structure shown. Where two headings read alike, the source gives them in different places.

How the values were obtained:
[1] = tested on: L. braziliensis promastigotes; assay: Leishmanicidal activity on L. braziliensis promastigotes (resazurin); format: cell-based, Leishmania braziliensis; details: 48 h; for IC50: Leishmania braziliensis, read-out: Leishmanicidal Activity on Promastigotes, L. braziliensis, IC50
Method: (§1) Culture of L. braziliensis (MHOM/BR/75/M2904), and L. infantum (MHOM/FR/91/LEM2259V) was obtained from the Facultad de Farmacia (Universidad Complutense de, Madrid, Spain). The maintenance of the strains, the form of cultivation, and the isolation of shape promastigota were performed following the procedures described by Roldos et al.. The promastigotes were grown at 22 °C in Schneider’s Drosophila medium supplemented with 20% FBS. The assay was performed using a modification of a previous method. Promastigotes (2 × 10^6 parasites/well) were cultured in 96-well plastic plates. Compounds were dissolved in dimethylsulfoxide (DMSO). Different dilutions of the compounds with a final volume up to 200 µL were added. After 48 h at 26 °C, 20 µL of a 2 mM resazurin solution was added, and the oxidation-reduction was quantified at 570 and 600 nm. The solution of resazurin was prepared at 2.5 mM in phosphate buffered solution (PBS), pH 7.4, and filtered through 0.22 µm prior to use. All tests were carried out in triplicate. Resazurin sodium salt was obtained from Sigma-Aldrich (St. Louis, MO, USA) and stored at 4 °C protected from light. The efficacy of each compound was estimated by calculating the IC50 values.

[2] = Cytotoxicity on NCTC-Clone 929 fibroblasts (resazurin); format: cell-based; details: mouse
Method: The cell line used was NCTC-Clone 929, which was grown in Minimal Essential Medium (Sigma) supplemented with 10% heat-inactivated FBS, penicillin G (100 U/mL), and streptomycin (100 µg/mL). Cell cultures were maintained at 37 °C in a humidified 5% CO2 atmosphere. The procedure for cell viability measurement was evaluated with resazurin by a colorimetric method. The cells were plated in 96-microtiter plates at 3 × 10^4 cells per well in a 100 µL growth medium. The cells were grown overnight at 37 °C, 5% CO2. Thereafter, the medium was removed and the compounds were added in a 200 µL medium for 24 h. After incubation, 20 µL of a 2 mM resazurin solution was added to each well. The plates were incubated for 3 h to allow optimal oxidation-reduction. The reduction of resazurin was determined by dual wavelength absorbance measurement at 490 and 595 nm. Background was subtracted. Each concentration was assayed three times. Medium and drug controls were used in each test as blanks.

T. cruzi epimastigotes = assay: Antiepimastigote activity, T. cruzi CL-B5 lacZ (CPRG); format: cell-based, Trypanosoma cruzi; details: clone CL-B5, 72 h; for IC50: Trypanosoma cruzi
Method: For in vitro studies of T. cruzi, the clone CL-B5 was used (donated by Faculty of Pharmacy, Complutense University, Madrid, Spain). Parasites were stably transfected with the Escherichia coli β-galactosidase gene (lacZ). Epimastigotes were grown at 28 °C in liver infusion tryptose broth (Difco, Detroit, MI, USA) with 10% fetal bovine serum (FBS) (Gibco, Carlsbad, CA, USA), penicillin (Ern S.A., Barcelona, Spain), and streptomycin (Reig Jofré S.A., Barcelona, Spain), as described previously, and harvested during the exponential growth phase. Briefly, the screening assay was performed in 96-well microplates (Sarstedt, Inc., Newton, NC, USA) with cultures that had not reached the stationary phase. Epimastigotes were seeded at 2 × 10^5 parasites/mL in 200 µL growth media. The plates were then incubated with the respective compounds at 28 °C for 72 h; afterwards, 50 µL of chlorophenol red-β-D-galactopyranoside (CPRG) solution was added, resulting in a final concentration of 200 µM. The plates were incubated at 37 °C for an additional 4 h and then read at 595 nm. Each concentration was tested in triplicate. The efficacy of each compound was estimated by calculating the IC50 values. These values were calculated by the sigmoidal dose–response curve adjustment using the statistical software program Graph-Pad Prims 3.0 (GraphPhad, San Diego, CA, USA). Benznidazole was used as the reference drug.

[3] = tested on: L. infantum promastigotes; assay: Leishmanicidal activity on L. infantum promastigotes (resazurin); format: cell-based, Leishmania infantum; details: 48 h; for IC50: Leishmania infantum, read-out: Leishmanicidal Activity on Promastigotes, L. infantum, IC50
Method: as §1

Row | Structure (SMILES) | IC50 ([1]; promastigotes) [µg/mL] | IC50 at 24 h [2] [µg/mL] | IC50 (T. cruzi epimastigotes) [µg/mL] | IC50 ([3]; promastigotes) [µg/mL] | IC50 [1] [µg/mL] | IC50 [3] [µg/mL] | Leishmanicidal Activity on Promastigotes, L. braziliensis, IC50 ([1]; promastigotes) [µg/mL] | Antiepimastigote Activity of T. cruzi, IC50 (T. cruzi epimastigotes) [µg/mL] | Leishmanicidal Activity on Promastigotes, L. infantum, IC50 ([3]; promastigotes) [µg/mL]
1 | CC(C)c1ccc2c(c1)CCC1[C@](C)(C(=O)OCc3cn(-c4ccccc4)nn3)CCC[C@]21C (stereo partly shown) [Compound 1] | 53 (≈ 116 µM) | > 256 | 46 (≈ 101 µM) | 60 (≈ 131 µM) |  |  |  |  | 
2 | CC(C)c1ccc2c(c1)CCC1[C@](C)(C(=O)OCCc3cn(-c4ccccc4)nn3)CCC[C@]21C (stereo partly shown) [Compound 2] |  | > 256 | > 256 |  | > 256 | > 256 |  |  | 
3 | CC(C)c1ccc2c(c1)CCC1[C@](C)(C(=O)OCc3cn(CSc4ccccc4)nn3)CCC[C@]21C (stereo partly shown) [Compound 3] |  | > 256 | > 256 |  | > 256 | > 256 |  |  | 
4 | CC(C)c1ccc2c(c1)CCC1[C@](C)(C(=O)OCCc3cn(CSc4ccccc4)nn3)CCC[C@]21C (stereo partly shown) [Compound 4] | 64 (≈ 124 µM) | 189 (≈ 365 µM) | 61 (≈ 118 µM) | 64 (≈ 124 µM) |  |  |  |  | 
5 | CC(C)c1ccc2c(c1)CCC1[C@](C)(COC(=O)CCc3cn(-c4ccccc4)nn3)CCC[C@]21C (stereo partly shown) [Compound 5] | 218 (≈ 449 µM) | > 256 | 223 (≈ 459 µM) | 193 (≈ 397 µM) |  |  |  |  | 
6 | CC(C)c1ccc2c(c1)CCC1[C@](C)(COC(=O)CCCCc3cn(-c4ccccc4)nn3)CCC[C@]21C (stereo partly shown) [Compound 6] |  | > 256 | > 256 |  | > 256 | > 256 |  |  | 
7 | CC(C)c1ccc2c(c1)CCC1[C@](C)(COC(=O)CCc3cn(Cc4ccccc4)nn3)CCC[C@]21C (stereo partly shown) [Compound 7] |  | > 256 | > 256 |  | > 256 | > 256 |  |  | 
8 | CC(C)c1ccc2c(c1)CCC1[C@](C)(COC(=O)CCCCc3cn(Cc4ccccc4)nn3)CCC[C@]21C (stereo partly shown) [Compound 8] |  | > 256 | > 256 |  | > 256 | > 256 |  |  | 
9 | CC(C)c1ccc2c(c1)CCC1[C@](C)(COC(=O)CCc3cn(CSc4ccccc4)nn3)CCC[C@]21C (stereo partly shown) [Compound 9] |  | > 256 | > 256 |  | > 256 | > 256 |  |  | 
10 | CC(C)c1ccc2c(c1)CCC1[C@](C)(COC(=O)CCCCc3cn(CSc4ccccc4)nn3)CCC[C@]21C (stereo partly shown) [Compound 10] |  | > 256 | > 256 |  | > 256 | > 256 |  |  | 
11 | COc1ccc(-n2cc(CCC(=O)OC[C@]3(C)CCC[C@]4(C)c5ccc(C(C)C)cc5CCC34)nn2)cc1 (stereo partly shown) [Compound 11] |  | > 256 | > 256 |  | > 256 | > 256 |  |  | 
12 | COC(=O)[C@]12CCC(C)(C)C[C@H]1C1=CCC3[C@@]4(C)CC[C@H](OC(=O)CCCc5cn(S(=O)(=O)c6ccc(C)cc6)nn5)C(C)(C)C4CC[C@@]3(C)[C@]1(C)CC2 (stereo partly shown) [Compound 32] |  |  | > 256 |  | > 256 | > 256 |  |  | 
13 | CC1(C)CC[C@]2(C(=O)O)CC[C@]3(C)C(=CCC4[C@@]5(C)CC[C@H](OC(=O)CCCc6cn(CSc7ccccc7)nn6)C(C)(C)C5CC[C@]43C)[C@@H]2C1 (stereo partly shown) [Compound 33] |  |  | > 256 |  | > 256 | > 256 |  |  | 
14 | COC(=O)[C@]12CCC(C)(C)C[C@H]1C1=CCC3[C@@]4(C)CC[C@H](OC(=O)CCCc5cn(CSc6ccccc6)nn5)C(C)(C)C4CC[C@@]3(C)[C@]1(C)CC2 (stereo partly shown) [Compound 34] |  |  | > 256 |  | > 256 | > 256 |  |  | 
15 | CC(C)c1ccc2c(c1)CC[C@H]1[C@](C)(C(=O)O)CCC[C@]21C [DHA, Dehydroabietic acid] | 44 (≈ 146 µM) |  | 212 (≈ 706 µM) | 72 (≈ 240 µM) |  |  |  |  | 
16 | CC(C)c1ccc2c(c1)CC[C@H]1[C@](C)(CO)CCC[C@]21C [Dehydroabietinol, dehydroabietinol, reference compound] |  |  |  |  |  |  | 63 | 66 | 40
17 | N=C(N)c1ccc(OCCCCCOc2ccc(C(=N)N)cc2)cc1 [Pentamidine, reference compound] | 3.3 (≈ 9.69 µM) |  |  | 3.3 (≈ 9.69 µM) |  |  |  |  | 
